# Source: PMC12527922, “Cocaine chemogenetics blunts drug-seeking by synthetic physiology” (Nature, 2025)
# Several values for one entry are separate records, joined by “and”; a condition that tells them apart may be missing. Equal values may be shown once.
# How the values were obtained:
# [1] = tested on: coca-5HT3 in cultured hippocampal neurons; assay: Current-clamp of cultured hippocampal neurons expressing coca-5HT3; type: cell-based, rat; conditions: coca-5HT3; coc (3 uM) relative to pre; unlabelled mean line
# [2] = molecular target: T1, coca-GlyR (α7(L141G,G175K,Y217F)–GlyR) (Homo sapiens, UniProt P23415+P36544, G175K/L141G/Y217F); assay: Membrane potential assay, coca-GlyR in HEK293; type: cell-based; conditions: coca-GlyR; for Max normalized AVG: AVG of DRs
# T1 construct: expressed in transfected cells; host or cells: HEK293 (ATCC CRL-1573), pcDNA3.1
# unmodified α7–GlyR = molecular target: T2, unmodified α7–GlyR (Homo sapiens, UniProt P23415+P36544); assay: Membrane potential assay, unmodified α7–GlyR; type: cell-based; conditions: a7-GlyR
# T2 construct: expressed in transfected cells; host or cells: HEK293 (ATCC CRL-1573), pcDNA3.1
# unmodified α7–5HT3 = molecular target: T3, unmodified α7–5HT3 (UniProt P23979+P36544, M226I/T225I); assay: Membrane potential assay, unmodified α7–5HT3; type: cell-based, human α7 nAChR LBD, mouse 5HT3 IPD; conditions: a7-5Ht3; for Max normalized AVG: AVG of DR 1-3; for Max normalized, single replicate: relative to ACh max of the DR
# T3 construct: expressed in transfected cells; host or cells: HEK293 (ATCC CRL-1573), pcDNA3.1
# [3] = molecular target: coca-5HT3 (α7(L141G,G175K,Y210F,Y217F)–5HT3) (Homo sapiens, UniProt P36544, G175K/L141G/Y210F/Y217F); assay: Membrane potential assay, coca-5HT3 in HEK293; conditions: coca-5HT3; for Max normalized AVG: AVG of DRs
# [4] = tested on: hippocampal neurons expressing GFP; assay: Current-clamp of control cultured hippocampal neurons expressing GFP; type: cell-based, rat; conditions: GFP; 3 uM relative to PRE; unlabelled mean line
# T1 sequence (P36544+P23415 fused P36544:L141G/P36544:G175K/P36544:Y217F): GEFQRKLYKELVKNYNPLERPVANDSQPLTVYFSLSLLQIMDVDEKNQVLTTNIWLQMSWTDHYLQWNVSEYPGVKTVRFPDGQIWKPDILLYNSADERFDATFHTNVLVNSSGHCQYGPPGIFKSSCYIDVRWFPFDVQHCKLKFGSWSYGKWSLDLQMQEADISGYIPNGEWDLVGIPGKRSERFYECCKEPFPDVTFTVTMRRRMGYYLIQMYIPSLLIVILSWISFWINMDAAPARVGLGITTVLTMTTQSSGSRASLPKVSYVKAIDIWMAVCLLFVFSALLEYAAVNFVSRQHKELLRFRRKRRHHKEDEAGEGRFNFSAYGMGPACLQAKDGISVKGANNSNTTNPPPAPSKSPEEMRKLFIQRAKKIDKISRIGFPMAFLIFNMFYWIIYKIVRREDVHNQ
# coca-5HT3 (α7(L141G,G175K,Y210F,Y217F)–5HT3), sequence (P36544 23-224 L141G/G175K/Y210F/Y217F): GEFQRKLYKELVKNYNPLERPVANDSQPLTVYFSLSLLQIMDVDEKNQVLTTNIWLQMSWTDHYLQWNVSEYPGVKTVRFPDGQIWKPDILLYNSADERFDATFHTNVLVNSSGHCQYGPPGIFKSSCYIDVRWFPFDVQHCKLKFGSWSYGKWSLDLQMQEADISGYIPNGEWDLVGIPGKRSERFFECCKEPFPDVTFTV
# coca-5HT3 (α7(L141G,G175K,Y210F,Y217F)–5HT3), sequence (P23979 242-489, further chain): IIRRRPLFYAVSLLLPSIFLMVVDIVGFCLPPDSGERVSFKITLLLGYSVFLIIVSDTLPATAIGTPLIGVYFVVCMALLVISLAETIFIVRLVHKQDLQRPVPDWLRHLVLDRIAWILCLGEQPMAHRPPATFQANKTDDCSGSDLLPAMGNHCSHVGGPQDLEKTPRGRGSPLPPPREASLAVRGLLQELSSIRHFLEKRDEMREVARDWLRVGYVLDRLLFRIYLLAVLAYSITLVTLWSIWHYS
# T3 sequence (P36544+P23979 fused P36544:T225I/P36544:M226I): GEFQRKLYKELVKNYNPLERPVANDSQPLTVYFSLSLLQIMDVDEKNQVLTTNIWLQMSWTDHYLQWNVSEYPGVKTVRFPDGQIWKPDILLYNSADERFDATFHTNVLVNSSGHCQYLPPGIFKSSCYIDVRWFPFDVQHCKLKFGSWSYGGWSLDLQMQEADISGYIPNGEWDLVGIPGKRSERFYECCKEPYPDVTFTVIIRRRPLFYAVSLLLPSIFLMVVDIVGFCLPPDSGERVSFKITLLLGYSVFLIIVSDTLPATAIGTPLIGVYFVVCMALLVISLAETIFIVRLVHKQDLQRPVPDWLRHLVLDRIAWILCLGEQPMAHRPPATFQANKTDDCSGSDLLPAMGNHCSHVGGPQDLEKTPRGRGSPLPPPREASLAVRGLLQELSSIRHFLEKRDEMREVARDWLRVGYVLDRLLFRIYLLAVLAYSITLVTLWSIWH
# T2 sequence (P36544+P23415 fused): as the sequence (P36544+P23415 fused P36544:L141G/P36544:G175K/P36544:Y217F) above, with G119L, K153G, F195Y counted along it
structure (smiles),measurement,setting,value
COC(=O)[C@H]1[C@@H](OC(=O)c2ccccc2)C[C@@H]2CC[C@H]1N2C [coc],"Rheobase Normalized, mean of cells",[1],0.5604
same,"DR response, single replicate",[2]; [coc] 0.0137174,0.056 and 0.038 and 0.023 and 0.039 and 0.008 and 0.041
same,"Max normalized, single replicate",[2]; [coc] 0.0137174,0.03823 and 0.06336 and 0.05409 and 0.0128 and 0.05758 and 0.03944
same,Max normalized AVG,[2]; [coc] 0.0137174,0.03793
same,"DR response, single replicate",[2]; [coc] 0.0411523,0.06 and 0.037 and 0.017 and 0.078 and 0.025 and 0.015 and 0.049
same,"Max normalized, single replicate",[2]; [coc] 0.0411523,0.03722 and 0.04683 and 0.05159 and 0.03467 and 0.024 and 0.06882 and 0.04225
same,Max normalized AVG,[2]; [coc] 0.0411523,0.04363
same,"DR response, single replicate",[2]; [coc] 0.123457,0.034 (2×) and 0.037 and 0.031 and 0.077 and 0.02 and 0.024
same,"Max normalized, single replicate",[2]; [coc] 0.123457,0.03722 and 0.0854 and 0.05093 and 0.02774 and 0.0384 and 0.04775 and 0.02394
same,Max normalized AVG,[2]; [coc] 0.123457,0.04448
same,"DR response, single replicate",[2]; [coc] 0.37037,0.097 and 0.151 and 0.076 and 0.133 and 0.062 and 0.045 and 0.065
same,"Max normalized, single replicate",[2]; [coc] 0.37037,0.1519 and 0.2094 and 0.08796 and 0.08599 and 0.072 and 0.09129 and 0.06831
same,Max normalized AVG,[2]; [coc] 0.37037,0.1095
same,"DR response, single replicate",[2]; [coc] 1.11111,0.511 and 0.61 and 0.222 and 1.095 and 0.27 and 0.244 and 0.282
same,"Max normalized, single replicate",[2]; [coc] 1.11111,0.6137 and 0.6116 and 0.7242 and 0.3745 and 0.3904 and 0.3961 and 0.3599
same,Max normalized AVG,[2]; [coc] 1.11111,0.4958
same,"DR response, single replicate",[2]; [coc] 3.33333,1.226 and 0.859 and 0.343 and 1.133 and 0.644 and 0.538 and 0.653
same,"Max normalized, single replicate",[2]; [coc] 3.33333,0.8642 and 0.9449 and 0.7493 and 0.8932 and 0.8608 and 0.9171 and 0.8634
same,Max normalized AVG,[2]; [coc] 3.33333,0.8704
same,"DR response, single replicate",[2]; [coc] 10,1.42 and 0.941 and 1.448 and 0.721 and 0.62 and 0.712
same,"Max normalized, single replicate",[2]; [coc] 10,0.9467 and 1 (4×) and 0.9577 and 0.992
same,Max normalized AVG,[2]; [coc] 10,0.9852
same,"DR response, single replicate",[2]; [coc] 30,1.327 and 0.994 and 1.512 and 0.592 and 0.625
same,"Max normalized, single replicate",[2]; [coc] 30,1 (3×) and 0.8211 and 0.9345
same,Max normalized AVG,[2]; [coc] 30,0.9511
same,max (DR response of the replicate),[2]; largest response of each DR,1.42 and 0.994 and 0.363 and 1.512 and 0.721 and 0.625 and 0.712
same,"DR response, single replicate",unmodified α7–GlyR; concentration 0.0457247,0.05 and 0.083 and 0.071
same,"DR response, single replicate",unmodified α7–GlyR; concentration 0.137174,0.031 and 0.061 and 0.045
same,"DR response, single replicate",unmodified α7–GlyR; concentration 0.411523,0.036 and 0.075 and 0.045
same,"DR response, single replicate",unmodified α7–GlyR; concentration 1.23457,0.032 and 0.049 and 0.043
same,"DR response, single replicate",unmodified α7–GlyR; concentration 3.7037,0.027 and 0.033 and 0.028
same,"DR response, single replicate",unmodified α7–GlyR; concentration 11.1111,0.032 and 0.038 and 0.034
same,"DR response, single replicate",unmodified α7–GlyR; concentration 33.3333,0.046 and 0.052 and 0.049
same,"DR response, single replicate",unmodified α7–GlyR; concentration 100,0.053 and 0.079 (2×)
same,"DR response, single replicate",unmodified α7–5HT3; concentration 0.0457247,0.035 and 0.029 and 0.04
same,Max normalized AVG,unmodified α7–5HT3; concentration 0.0457247,0.03558
same,"Max normalized, single replicate",unmodified α7–5HT3; concentration 0.0457247,0.02736 and 0.03711 and 0.04227
same,"DR response, single replicate",unmodified α7–5HT3; concentration 0.137174,0.031 and 0.062 and 0.034
same,Max normalized AVG,unmodified α7–5HT3; concentration 0.137174,0.04249
same,"Max normalized, single replicate",unmodified α7–5HT3; concentration 0.137174,0.05849 and 0.03154 and 0.03744
same,"DR response, single replicate",unmodified α7–5HT3; concentration 0.411523,0.023 and 0.07 and 0.034
same,Max normalized AVG,unmodified α7–5HT3; concentration 0.411523,0.04179
same,"Max normalized, single replicate",unmodified α7–5HT3; concentration 0.411523,0.06604 and 0.03154 and 0.02778
same,"DR response, single replicate",unmodified α7–5HT3; concentration 1.23457,0.031 and 0.038 and 0.043
same,Max normalized AVG,unmodified α7–5HT3; concentration 1.23457,0.03773
same,"Max normalized, single replicate",unmodified α7–5HT3; concentration 1.23457,0.03585 and 0.03989 and 0.03744
same,"DR response, single replicate",unmodified α7–5HT3; concentration 3.7037,0.019 and 0.031 and 0.039
same,Max normalized AVG,unmodified α7–5HT3; concentration 3.7037,0.02946
same,"Max normalized, single replicate",unmodified α7–5HT3; concentration 3.7037,0.02925 and 0.03618 and 0.02295
same,"DR response, single replicate",unmodified α7–5HT3; concentration 11.1111,0.036 and 0.037 and 0.017
same,Max normalized AVG,unmodified α7–5HT3; concentration 11.1111,0.03138
same,"Max normalized, single replicate",unmodified α7–5HT3; concentration 11.1111,0.03491 and 0.01577 and 0.04348
same,"DR response, single replicate",unmodified α7–5HT3; concentration 33.3333,0.037 and 0.071 and 0.05
same,Max normalized AVG,unmodified α7–5HT3; concentration 33.3333,0.05268
same,"Max normalized, single replicate",unmodified α7–5HT3; concentration 33.3333,0.06698 and 0.04638 and 0.04469
same,"DR response, single replicate",unmodified α7–5HT3; concentration 100,0.055 and 0.086 and 0.089
same,Max normalized AVG,unmodified α7–5HT3; concentration 100,0.07671
same,"Max normalized, single replicate",unmodified α7–5HT3; concentration 100,0.08113 and 0.08256 and 0.06643
same,"DR response, single replicate",[3]; [coc] 0.0137174,0.067 and 0.015 and 0.01 and 0.009 and 0.046 and 0.1 and 0.014
same,"Max normalized, single replicate",[3]; [coc] 0.0137174,0.01571 and 0.04202 and 0.03502 and 0.04968 and 0.07513 and 0.01777 and 0.06549
same,Max normalized AVG,[3]; [coc] 0.0137174,0.04297
same,"DR response, single replicate",[3]; [coc] 0.0411523,0.051 and 0.054 and 0.011 and 0.02 and 0.076 and 0.06 and 0.008 and 0.009
same,"Max normalized, single replicate",[3]; [coc] 0.0411523,0.05654 and 0.04622 and 0.07782 and 0.08207 and 0.04508 and 0.01015 and 0.007098 and 0.04985
same,Max normalized AVG,[3]; [coc] 0.0411523,0.04686
same,"DR response, single replicate",[3]; [coc] 0.123457,0.063 and 0.015 and 0.01 and 0.013 (2×) and 0.056 and 0.037 and 0.035
same,"Max normalized, single replicate",[3]; [coc] 0.123457,0.01571 and 0.04202 and 0.05058 and 0.06048 and 0.0278 and 0.04442 and 0.01025 and 0.06158
same,Max normalized AVG,[3]; [coc] 0.123457,0.0391
same,"DR response, single replicate",[3]; [coc] 0.37037,0.098 and 0.161 and 0.012 and 0.019 and 0.144 and 0.109 and 0.122 and 0.014
same,"Max normalized, single replicate",[3]; [coc] 0.37037,0.1686 and 0.05042 and 0.07393 and 0.1555 and 0.08189 and 0.1548 and 0.01104 and 0.0958
same,Max normalized AVG,[3]; [coc] 0.37037,0.099
same,"DR response, single replicate",[3]; [coc] 1.11111,0.363 and 0.54 and 0.108 and 0.033 and 0.699 and 0.66 and 0.506 and 0.355
same,"Max normalized, single replicate",[3]; [coc] 1.11111,0.5654 and 0.4538 and 0.1284 and 0.7549 and 0.4959 and 0.6421 and 0.28 and 0.3548
same,Max normalized AVG,[3]; [coc] 1.11111,0.4594
same,"DR response, single replicate",[3]; [coc] 3.33333,0.825 and 0.861 and 0.191 and 0.144 and 0.926 and 1.093 and 0.788 and 0.762
same,"Max normalized, single replicate",[3]; [coc] 3.33333,0.9016 and 0.8025 and 0.5603 and 1 (2×) and 0.8212 and 0.6009 and 0.8065
same,Max normalized AVG,[3]; [coc] 3.33333,0.8116
same,"DR response, single replicate",[3]; [coc] 10,1.023 and 0.955 and 0.229 and 0.257 and 0.908 and 1.331 and 0.736 and 1.159
same,"Max normalized, single replicate",[3]; [coc] 10,1 (4×) and 0.9622 and 0.9806 and 0.934 and 0.914
same,Max normalized AVG,[3]; [coc] 10,0.9738
same,"DR response, single replicate",[3]; [coc] 30,0.864 and 0.903 and 0.238 and 0.251 and 1.268
same,"Max normalized, single replicate",[3]; [coc] 30,0.9456 and 1 (2×) and 0.9767 and 0.8446
same,Max normalized AVG,[3]; [coc] 30,0.9534
same,max (DR response of the replicate),[3]; largest response of each DR,1.023 and 0.955 and 0.238 and 0.257 and 0.926 and 1.331 and 0.788 and 1.268
same,"Rheobase Normalized, mean of cells",[4],1.094
